≈ marks a conversion by molar mass, not a printed value.
Experiments:
[1] = Plasma kinetics, intravenous, Sprague-Dawley rats; format: in vivo, female Sprague-Dawley rats
Experimental: CFMQ (HGT3711) was administered to fasted female Sprague-Dawley rats by a single intravenous injection at 1.0 mg/kg, formulated in 100% PEG200 (Table 2.6.5.X, Study 10SHIRUSP11). Blood samples were taken via a jugular vein cannula prior to administration and at 0.083 (5 min), 0.25 (15 min), 0.50 (30 min), 1, 2, 4 and 8 hours post dose. Plasma concentrations of CFMQ (HGT3711) were determined by LC-MS/MS and concentrations below the limit of quantitation (1 ng/mL) were assigned a value of zero for pharmacokinetic analysis. Nominal dosing concentrations were used in all calculations.

[2] = biological target: T1, human B2-bradykinin receptor (Homo sapiens, UniProt P30411); assay: Calcium mobilization assay in human fibroblast (HF15) cells; format: cell-based; design: endogenous in cells; host or cells: HF15 human fibroblasts; conditions: 25 minutes pre-incubation at 25° C., read-out: IC50, inhibition of bradykinin-induced calcium mobilization
T1 sequence (P30411 1-391): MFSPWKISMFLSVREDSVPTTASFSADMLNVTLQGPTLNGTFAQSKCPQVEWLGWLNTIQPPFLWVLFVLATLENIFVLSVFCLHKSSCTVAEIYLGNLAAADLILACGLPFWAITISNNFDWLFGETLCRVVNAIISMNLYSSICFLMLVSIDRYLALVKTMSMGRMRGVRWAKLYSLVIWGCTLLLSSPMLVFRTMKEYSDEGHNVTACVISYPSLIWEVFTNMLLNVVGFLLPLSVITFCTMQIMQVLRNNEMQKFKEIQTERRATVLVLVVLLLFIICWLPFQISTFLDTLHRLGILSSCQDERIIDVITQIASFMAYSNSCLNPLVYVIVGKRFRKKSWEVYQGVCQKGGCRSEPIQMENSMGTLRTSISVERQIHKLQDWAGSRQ
Experimental: CFMQ was formulated as a 5 nM stock solution in 100% DMSO and serially diluted to 0.04, 0.12, 0.37, 1.11, 3.33, 10 and 30 nM. Human fibroblast (HF15) cells, which express the human B2R were loaded with 100 μL calcium dye solution containing 2.5 mM probenicide and were then pre-incubated with CFMQ for 25 minutes at 25° C. The inhibition effect of CFMQ on bradykinin-mediated calcium mobilization was tested in this system by emission of fluorescence signals, using the height of the resulting peak over the baseline value (relative fluorescence units [RFU] max-min). The percent inhibition for each concentration was used for curve fit and IC50 calculation.

plasma extravasation = assay: Plasma extravasation (Evans blue in bladder), oral gavage, wild-type male mice; format: in vivo, wild-type (WT) C57/BL6 male mice; conditions: for inhibition of plasma extravasation at % (compared to vehicle controls): after 64 minutes
Excerpt: In vivo experiments in both wild-type (WT) C57BL/6J mice and C1-inhibited knock out (C1 INH KO) mice measured pharmacodynamic efficacy by the ability of CFMQ to block plasma extravasation, which is causative to edema, the most important symptom requiring treatment in HAE subjects. This plasma extravasation model has been used extensively in the literature to investigate the efficacy of bradykinin receptor antagonists. (Han et al., “Increased vascular permeability in C1 inhibitor-deficient mice mediated by the bradykinin type 2 receptor,” J Clin Invest, 2002 April; 109(8): 1057-1063.)
The uptake and effective blocking of plasma extravasation of CFMQ (HGT3711) was examined following oral administration in wild-type (WT) C57/BL6 male mice (n=4/dose group). Mice received a single oral gavage of CFMQ (HGT3711) (10 μL/g) at 3.0 or 10 mg/kg. Blood samples were taken at 20 and 60 minutes post-dose. Following oral administration CFMQ (HGT3711) administration and prior to the terminal time point, mice received an IV injection of Evans blue (EB) dye (30 mg/kg) and were sacrificed. Similar to the IV study, EB concentration in the formamide extract was determined spectrophotometrically (μg EB per milligram of tissue) and efficacy was determined by inhibiting the accumulation of EB in the bladder.

diverse set of receptors = assay: Receptor binding and selectivity panel
Experimental: To determine the affinity to the B2-bradykinin receptor, CFMQ was compared to a diverse set of receptors and reference agents in an in vitro assay using cells from rat heart, urinary bladder, cerebral cortex, as well as human recombinant cells (CHO and HEK 293) and other cell lines. Each assay included a ligand at a specific concentration (concentration ranging from 0.007-10 nM), in addition to a non-specific ligand (concentration ranging from […]) for incubation periods ranging from 15 minutes to 6 hours at 4°-37° C. The specific binding to the receptors was defined as the difference between the total binding and the nonspecific binding, determined in the presence of an excess of unlabeled CFMQ. The concentration causing a half-maximal inhibition of control specific binding (IC50 values) and inhibition constants (Ki) were determined, and each reference compound was within the accepted limits of the historic average (±0.5 log units).

[3] = In vitro microsomal stability, mini-pig; format: in vitro ADME; conditions: Mini-Pig (Gotting), Male
Experimental: (§1) In vitro metabolic stability studies were performed to determine hepatic stability in vivo. CFMQ was incubated in liver microsomal preparations from mouse, rat, dog, mini-pig, and humans, as well as an additional study with monkey and human. CFMQ was incubated with human and animal liver microsomes at 0.3 mg/mL at 37° C. for 30 or 60 minutes. Additional reference compounds were incubated as controls. Following incubation, samples were analyzed by HPLC-MS/MS.

[4] = Solubility of CFMQ in vehicles; format: physicochemical
Experimental: The physicochemical properties of 1-((4-Chloro-3-(((4-(4-fluoro-1H-pyrazol-1-yl)-2-methylquinolin-8-yl)oxy)methyl)-6-methylpyridin-2-yl)methyl)-2-oxo-1,2-dihydropyridine-3-carbonitrile (CFMQ) were determined using standard methods. CFMQ was a free base with a molecular weight of 514.9 Da and was a nonhygroscopic, crystalline powder with a melting point of about 214° C.

[5] = In vitro microsomal stability, dog; format: in vitro ADME; conditions: Dog (Beagle), Male
Experimental: as §1

[6] = female, Sprague-Dawley, rat, plasma, IV 1 mg/kg

clearance as % of liver blood flow in rat (3.3 L/hr/kg) ([1]; IV 1 mg/kg): approximately 30% | AUC(0-inf) [1, 6]: 1410 ng·h/mL | AUC(0-t) [1, 6]: 1150 ng·h/mL | C0 [1, 6]: 747 ng/mL | Tmax [1, 6]: 0 h | clearance [1, 6]: 15.8 mL/min/kg | half-life [1, 6]: 2.86 ± 2.54 h | concentration at 0 hr ([1]; female, Sprague-Dawley, rat, plasma, IV 1 mg/kg, 0 hr, read-out: Average Concentration of HGT3711): 0 ng/mL | concentration at 0.083 hr ([1]; female, Sprague-Dawley, rat, plasma, IV 1 mg/kg, 0.083 hr, read-out: Average Concentration of HGT3711): 597 ng/mL | concentration at 0.25 hr ([1]; female, Sprague-Dawley, rat, plasma, IV 1 mg/kg, 0.25 hr, read-out: Average Concentration of HGT3711): 401 ng/mL | concentration at 0.5 hr ([1]; female, Sprague-Dawley, rat, plasma, IV 1 mg/kg, 0.50 hr, read-out: Average Concentration of HGT3711): 324 ng/mL | concentration at 1 hr ([1]; female, Sprague-Dawley, rat, plasma, IV 1 mg/kg, 1.0 hr, read-out: Average Concentration of HGT3711): 248 ng/mL | concentration at 2 hr ([1]; female, Sprague-Dawley, rat, plasma, IV 1 mg/kg, 2.0 hr, read-out: Average Concentration of HGT3711): 160 ng/mL | concentration at 4 hr ([1]; female, Sprague-Dawley, rat, plasma, IV 1 mg/kg, 4.0 hr, read-out: Average Concentration of HGT3711): 113 ng/mL | concentration at 8 hr ([1]; female, Sprague-Dawley, rat, plasma, IV 1 mg/kg, 8.0 hr, read-out: Average Concentration of HGT3711): 36.9 ng/mL | Vd ([1]; female, Sprague-Dawley, rat, plasma, IV 1 mg/kg, read-out: Vss): 2.6 ± 1.1 L/kg | IC50 [2]: 2.97 nM | binding selectivity for B2-bradykinin receptor (diverse set of receptors): selective | % Remaining [30 minutes] ([3]; 30 minutes): 74% | % Remaining [60 minutes] ([3]; 60 minutes): 58% | solubility ([4]; 0.1 N HCl, simulated gastric fluid, HCl 0.1N, pH 1.3): 320 µg/mL (≈ 621 µM) | solubility ([4]; Labrasol (glyceryl and polyethylene glycol esters), aqueous with cosolvent or surfactant or cyclodextrin): 1430 µg/mL (≈ 2780 µM) | solubility ([4]; NaOH 0.1N, pH 12.8, aqueous buffer): < 10 µg/mL | solubility ([4]; PEG400 (polyethylene glycol 400), organic solvent or mixture): 2370 µg/mL (≈ 4600 µM) | solubility ([4]; Tween 20 (polyoxyethylene (20) sorbitan monolaurate), aqueous with cosolvent or surfactant or cyclodextrin): 870 µg/mL (≈ 1690 µM) | solubility ([4]; Tween 80 (polyoxyethylene (80) sorbitan monolaurate), aqueous with cosolvent or surfactant or cyclodextrin): 3500 µg/mL (≈ 6800 µM) | solubility ([4]; citrate/NaOH buffer, aqueous buffer, Citrate/NaOH pH 2): 20 µg/mL (≈ 38.8 µM) | solubility ([4]; citrate/NaOH buffer, aqueous buffer, Citrate/NaOH pH 5): < 10 µg/mL | solubility ([4]; ethanol, organic solvent or mixture): 170 µg/mL (≈ 330 µM) | solubility ([4]; glycerol, organic solvent or mixture): 10 µg/mL (≈ 19.4 µM) | solubility ([4]; olive oil, oil or lipid): < 10 µg/mL | solubility ([4]; organic solvent or mixture, Acetic acid, glacial): 19900 µg/mL (≈ 38600 µM) | solubility ([4]; phosphate buffer, pH 7, aqueous buffer): < 10 µg/mL | solubility ([4]; propylene glycol, organic solvent or mixture): 100 µg/mL (≈ 194 µM) | solubility ([4]; water): < 10 µg/mL | % Remaining [30 minutes] ([5]; 30 minutes): 66% | % Remaining [60 minutes] ([5]; 60 minutes): 45%
SMILES: Cc1cc(Cl)c(COc2cccc3c(-n4cc(F)cn4)cc(C)nc23)c(Cn2cccc(C#N)c2=O)n1 [CFMQ, 1-((4-Chloro-3-(((4-(4-fluoro-1H-pyrazol-1-yl)-2-methylquinolin-8-yl)oxy)methyl)-6-methylpyridin-2-yl)methyl)-2-oxo-1,2-dihydropyridine-3-carbonitrile]
adverse reactions ([1]; IV 1.0 mg/kg, rats): no adverse reactions observed | inhibition of plasma extravasation to % (compared to vehicle controls) (plasma extravasation; oral 3.0 mg/kg, 4 minutes post dose): 56% | inhibition of plasma extravasation to % (compared to vehicle controls) (plasma extravasation; oral 3.0 mg/kg, 24 minutes post dose): 58% | inhibition of plasma extravasation at % (compared to vehicle controls) (plasma extravasation; oral 3.0 mg/kg): 72% | inhibition of plasma extravasation to % (compared to vehicle controls) (plasma extravasation; oral 10 mg/kg, 4 minutes post dose): 14% | inhibition of plasma extravasation to % (compared to vehicle controls) (plasma extravasation; oral 10 mg/kg, 24 minutes post dose): 21% | inhibition of plasma extravasation at % (compared to vehicle controls) (plasma extravasation; oral 10 mg/kg): 75%

— patent publication US20160030416A1, “METHODS OF TREATING B2-BRADYKININ RECEPTOR MEDIATED ANGIOEDEMA” (SHIRE HUMAN GENETIC THERAPIES, INC., priority 2013, published 2016)
